Entries after “also recorded” stand apart in the source; their conditions may differ.
What was measured:
PTP1B (50 kDa PTP) = biological target: T1, PTP1B (50 kDa PTP) (Rattus norvegicus, UniProt P20417); test: modified in-gel PTP assay (RCML substrate), insulin stimulated Rat-1 cells; type: cell-based; details: 50 nM insulin, serum-starved Rat-1 cells
T1 construct: endogenous in cells; host or cells: Rat-1 fibroblasts
T1 sequence (P20417 1-432): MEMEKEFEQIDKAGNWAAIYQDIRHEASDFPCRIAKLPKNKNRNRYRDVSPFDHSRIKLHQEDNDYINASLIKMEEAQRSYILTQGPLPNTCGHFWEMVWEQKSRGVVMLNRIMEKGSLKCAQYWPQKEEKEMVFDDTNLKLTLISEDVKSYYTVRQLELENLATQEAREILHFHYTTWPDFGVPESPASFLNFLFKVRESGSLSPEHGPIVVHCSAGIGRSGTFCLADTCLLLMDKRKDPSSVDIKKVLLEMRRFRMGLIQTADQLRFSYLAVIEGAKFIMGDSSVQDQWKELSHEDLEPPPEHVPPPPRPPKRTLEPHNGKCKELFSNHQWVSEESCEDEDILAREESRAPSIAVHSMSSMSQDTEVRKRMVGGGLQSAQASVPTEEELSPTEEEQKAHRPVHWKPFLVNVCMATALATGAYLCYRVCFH
Experimental: (§1) The effect of insulin-induced H2O2 production on PTP oxidation was examined using the modified in-gel PTP assay essentially as described in Example 1. Serum-starved Rat-1 cells were exposed to 50 nM insulin for 2, 5, 10, 20, and 30 minutes. Lysates were prepared under anaerobic conditions in the presence of 10 mM IAA and then subjected to in-gel PTP assays. The substrate incorporated into the SDS-PAGE gels for these assays was ^32P-labeled reduced, carboxamidomethylated and maleylated lysozyme (RCML) (1.5×10^6 cpm/20 ml gel solution, ˜2 μM p-Tyr).
(§2) The oxidized 45 kDa and 50 kDa PTPs were identified as TC-45 and PTP1B, respectively, by immunodepletion and immunoblotting. Total cell lysates were prepared as described in Example 1. Lysate (400 μg) was incubated with normal IgG, anti-PTP1B antibody (FG6, LaMontagne et al., Mol. Cell. Biol. 18:2965-75 (1998)), or anti-TC45 antibody (1910H, Lorenzen et al., J. Cell. Biol. 131:631-43 (1995)) coupled to protein G-Sepharose ^T beads (Amersham Biosciences). After the immunoprecipitation step, the immune complexes and supernatants were collected and subjected to in-gel PTP assays. Immunodepletion of the 50 kDa PTP from the lysate with anti-PTP1B antibody is shown in FIG. 11B, and immunodepletion of the 45 kDa PTP with antibody specific for TC45 is shown in FIG. 11C. […]

TC45 (45 kDa PTP) = biological target: T2, TC45 (45 kDa PTP) (Rattus norvegicus, UniProt P35233); test: as above; type: cell-based; details: 50 nM insulin, serum-starved Rat-1 cells
T2 construct: endogenous in cells; host or cells: Rat-1 fibroblasts
T2 sequence (P35233 1-382 isoform P35233-2): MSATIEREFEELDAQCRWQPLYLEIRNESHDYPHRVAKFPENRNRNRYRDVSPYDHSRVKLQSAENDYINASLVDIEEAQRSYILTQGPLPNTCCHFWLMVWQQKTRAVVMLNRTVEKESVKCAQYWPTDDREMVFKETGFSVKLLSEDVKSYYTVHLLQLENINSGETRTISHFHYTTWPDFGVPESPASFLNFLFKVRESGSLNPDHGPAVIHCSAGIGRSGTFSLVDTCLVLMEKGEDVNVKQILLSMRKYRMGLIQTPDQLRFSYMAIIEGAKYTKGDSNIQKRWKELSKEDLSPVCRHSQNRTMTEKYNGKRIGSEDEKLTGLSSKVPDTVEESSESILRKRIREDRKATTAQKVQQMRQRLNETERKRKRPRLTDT
Experimental: as §1, §2

SHP-2 (E76A mutant) = SHP-2 (E76A mutant) (Homo sapiens, UniProt Q06124, E76A); type: biochemical
PTPs in Rat-1 cells = test: modified in-gel PTP activity assay of Rat-1 cell lysates; type: cell-based
Text: To determine whether ROS stimulated intracellular tyrosine phosphorylation through the oxidation and inhibition of cellular PTPs, a modified in-gel PTP activity assay was devised, as follows: As substrate, poly (4:1) Glu-Tyr (Sigma) was labeled with [γ-^32P]-ATP using the GST-FER fusion PTK, as described previously (Shen et al., 1998 J. Biol. Chem. 273:6474-81). The labeled substrates were used within three weeks to limit the variation of its specific activity from experiment to experiment. The lysis buffer (25 mM CH3COONa, 1% NP-40, 150 mM NaCl, 10% glycerol, pH 5.5) was degassed at 4° C. for overnight, before catalase and superoxide dismutase (both 100 μg/ml), protease inhibitors and 10 mM iodoacetic acid (IAA) were added. Following stimulation, cells were lysed under anaerobic conditions in an argon chamber. Lysates (25 μg) were processed as described herein and an “in-gel” phosphatase assay (Burridge and Nelson, 1995) was conducted using SDS-PAGE gels containing a radioactively-labeled substrate (1.5×10^6 cpm/20 ml gel solution, approximately 2 μM p-Tyr).
Cells were triggered with the appropriate stimulus and harvested under anaerobic conditions in lysis buffer containing IAA. Those PTPs that had not encountered ROS in the cell became irreversibly inactivated by alkylation of their active site Cys with IAA. However, in contrast, any PTPs in which the active site Cys had been oxidized in response to the stimulus were resistant to alkylation. For the “in-gel” phosphatase assay, a 10% SDS-PAGE gel was cast containing a radioactively-labeled substrate. An aliquot of cell lysate was subjected to SDS-PAGE and proteins in the gel were sequentially denatured, then renatured in the presence of reducing reagents. […] The reaction was then terminated by fixing, staining and destaining the gel. Finally the gel was dried and exposed to film. The presence of a PTP was visualized by substrate dephosphorylation, as the appearance of a clear, white area on the black background of labeled substrate.

[1] = system: PTPs in peripheral blood mononuclear lymphocytes; test: in-gel protection assay, PHA-stimulated peripheral blood mononuclear lymphocytes; type: cell-based, human; details: 50 mM IAA, cells without ASBA-1 pretreatment
Experimental: Peripheral blood mononuclear lymphocytes were purified from human blood. In 5 ml media (RPMI), 2×10^7 cells were incubated in 50 μM ASBA-1 (PTP specific inhibitor) for 90 minutes and stimulated with phytohemagglutinin (PHA, 0.5 μL of 5.0 mg/ml stock) for 2, 10 or 30 min. […] Desalted proteins were separated on a 2 ml Source Q anion exchange column (Amersham Pharmacia Biotech) using a 0-1M NaCl gradient in 20 mM Tris, pH 7.5; 1 mM EDTA; 0.05% Triton X-100.

Question: “insulin: polypeptide hormone used as stimulus” was tested. Which “oxidation of 50 kDa PTP (PTP1B)” value (PTP1B (50 kDa PTP)) did it give?
Answer: Its value is “transiently oxidized; also recorded: induced the transient oxidation”.

Question: And the “oxidation of 45 kDa PTP (TC45)” value (TC45 (45 kDa PTP))?
Answer: Its value is “transiently oxidized; also recorded: induced the transient oxidation”.

Question: For O=C(O)CI [IAA, iodoacetic acid], which “inactivation of purified SHP-2” value (SHP-2 (E76A mutant)) is on record?
Answer: The value was “inactivated by IAA”.

Question: What about the “inactivation of PTPs in lysate by alkylation” value (PTPs in Rat-1 cells) of the same compound?
Answer: Its value is “effectively inactivated PTPs”.

Question: And the “inactivation of PTPs” value [1]?
Answer: The value was “inactivated by IAA”.

Reference: patent publication US20030215899A1, “Reversible oxidation of protein tyrosine phosphatases” (CEPTYR, Inc., priority 2002, published 2003)
